Measurements published in PubChem BioAssay (NCI).
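Step 1: Grow cells in 96-well plates. Step 2: Expose to compound for 48 hours at 5 concentrations. Step 3: Interpolate endpoints linearly; if unreached, use highest concentration. At the TGI there is no net growth.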

How the values were obtained:
Experiment in all cases: DTP human tumour cell line panel, 48 h
[1] = tested on: 786-0 renal
[2] = tested on: A498 renal
[3] = tested on: A549 NSCLC
[4] = tested on: ACHN renal
[5] = tested on: BT-549 breast
[6] = tested on: CAKI-1 renal
[7] = tested on: CCRF-CEM leukemia
[8] = tested on: COLO 205 colon
[9] = tested on: DU-145 prostate
[10] = tested on: EKVX NSCLC
[11] = tested on: HCC-2998 colon
[12] = tested on: HCT-116 colon
[13] = tested on: HCT-15 colon
[14] = tested on: HL-60(TB) leukemia
[15] = tested on: HS 578T breast
[16] = tested on: HT29 colon
[17] = tested on: IGROV1 ovarian
[18] = tested on: KM12 colon
[19] = tested on: LOX IMVI melanoma
[20] = tested on: M14 melanoma
[21] = tested on: MALME-3M melanoma
[22] = tested on: MCF7 breast
[23] = tested on: MDA-MB-231 breast
[24] = tested on: MDA-MB-435
[25] = tested on: MDA-N
[26] = tested on: MOLT-4 leukemia
[27] = tested on: NCI-H226 lung
[28] = tested on: NCI-H23 lung
[29] = tested on: NCI-H460 lung
[30] = tested on: NCI-H522 lung
[31] = tested on: NCI/ADR-RES ovarian
[32] = tested on: OVCAR-3 ovarian
[33] = tested on: OVCAR-5 ovarian
[34] = tested on: OVCAR-8 ovarian
[35] = tested on: PC-3 prostate
[36] = tested on: RPMI-8226 leukemia
[37] = tested on: RXF 393 renal
[38] = tested on: SF-268 CNS
[39] = tested on: SF-295 CNS
[40] = tested on: SF-539 CNS
[41] = tested on: SK-MEL-2 melanoma
[42] = tested on: SK-MEL-28 melanoma
[43] = tested on: SK-MEL-5 melanoma
[44] = tested on: SK-OV-3 ovarian
[45] = tested on: SN12C renal
[46] = tested on: SNB-19 CNS
[47] = tested on: SNB-75 CNS
[48] = tested on: SW-620 colon
[49] = tested on: TK-10 renal
[50] = tested on: U251 CNS
[51] = tested on: UACC-257 melanoma
[52] = tested on: UACC-62 melanoma
[53] = tested on: UO-31 renal
[54] = tested on: HOP-62 NSCLC
[55] = tested on: HOP-92 NSCLC
[56] = tested on: K-562 leukemia
[57] = tested on: OVCAR-4 ovarian
[58] = tested on: SR leukemia
[59] = tested on: T-47D breast

Measured: TGI

Cc1ccc(S(=O)(=O)Oc2nc3ccccc3nc2N(S(=O)(=O)c2ccc(C)cc2)S(=O)(=O)c2ccc(C)cc2)cc1
> 100 µM: [1] | [2] | [3] | [4] | [5] | [6] | [7] | [8] | [9] | [10] | [11] | [12] | [13] | [14] | [15] | [16] | [17] | [18] | [19] | [20] | [21] | [22] | [23] | [24] | [25] | [26] | [27] | [28] | [29] | [30] | [31] | [32] | [33] | [34] | [35] | [36] | [37] | [38] | [39] | [40] | [41] | [42] | [43] | [44] | [45] | [46] | [47] | [48] | [49] | [50] | [51] | [52] | [53]

COC(=O)[C@@H]1C[C@@H]2c3ccccc3N(S(=O)(=O)c3ccccc3)[C@@H]2N1C(=O)OC
> 100 µM: [1] | [3] | [4] | [5] | [6] | [7] | [8] | [9] | [10] | [11] | [12] | [13] | [14] | [54] | [55] | [15] | [16] | [17] | [56] | [18] | [19] | [21] | [22] | [23] | [24] | [25] | [26] | [27] | [28] | [29] | [30] | [31] | [32] | [57] | [33] | [34] | [35] | [36] | [37] | [38] | [39] | [40] | [41] | [42] | [43] | [44] | [45] | [46] | [47] | [58] | [48] | [49] | [50] | [51] | [52] | [53]

COc1ccc(/C=C2\N=C(NN)N=C2Cl)cc1
> 100 µM: [1] | [2] | [3] | [4] | [6] | [7] | [8] | [9] | [10] | [11] | [12] | [13] | [14] | [54] | [55] | [15] | [16] | [17] | [56] | [18] | [19] | [20] | [21] | [22] | [23] | [24] | [25] | [26] | [27] | [28] | [30] | [31] | [32] | [57] | [33] | [34] | [35] | [36] | [37] | [38] | [39] | [40] | [41] | [42] | [43] | [44] | [45] | [46] | [47] | [58] | [48] | [59] | [49] | [50] | [51] | [53]
